# According to patent publication US8895504B2, “Amylin derivatives” (priority 2008, dated 2014):
# *1 amine or outer side, *2 acyl side, *3 side chain or, on linkers, in order; H or OH if unused. Where a SMILES comes first, the peptide text is derived from it. Bridges are numbered along the chain shown (N, C = ends). The star is where a group is joined. C20 diacid = O=C(O)CCCCCCCCCCCCCCCCCCC(=O)*; C18 diacid = O=C(O)CCCCCCCCCCCCCCCCC(=O)*; PEG8 = NCCOCCOCCOCCOCCOCCOCCOCCOCCC(=O)O; γGlu = O=C(O)[C@H](CCC(=O)[*:2])N[*:1]; Adipoyl = O=C(CCCCC(=O)[*:2])[*:1]
# Target: T1, Amylin 3(a) receptor (human calcitonin receptor (CTa) and RAMP-3) (Homo sapiens, UniProt O60896+P30988)
# T1 construct: expressed in transfected cells; host or cells: BHK570 cells, stably transfected with a CRE-luciferase reporter
# Assay: Luciferase assay (III), BHK Amylin 3(a)//CRE-luc cells
# Assay type: cell-based
# Details: BHK cells with Amylin 3(a) receptor and CRE luciferase reporter, 4 hours incubation; read-out: Potency Luciferase
# Method in brief: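 BHK570 cells stably expressing CTa, RAMP-3 and a CRE-luciferase reporter, seeded at about 20,000 cells/well and grown overnight. Cells were exposed to standard or sample for 4 h at 37° C in phenol red-free DMEM with 10% FBS and 10 mM Hepes, pH 7,4. Luminescence was read after 30 min LucLite at room temperature.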
# T1 sequence (O60896 24-148): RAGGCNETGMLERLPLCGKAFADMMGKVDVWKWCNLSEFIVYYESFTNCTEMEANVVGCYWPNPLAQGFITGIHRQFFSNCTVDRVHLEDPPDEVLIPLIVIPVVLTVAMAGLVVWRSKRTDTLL
# T1 sequence (P30988 25-474): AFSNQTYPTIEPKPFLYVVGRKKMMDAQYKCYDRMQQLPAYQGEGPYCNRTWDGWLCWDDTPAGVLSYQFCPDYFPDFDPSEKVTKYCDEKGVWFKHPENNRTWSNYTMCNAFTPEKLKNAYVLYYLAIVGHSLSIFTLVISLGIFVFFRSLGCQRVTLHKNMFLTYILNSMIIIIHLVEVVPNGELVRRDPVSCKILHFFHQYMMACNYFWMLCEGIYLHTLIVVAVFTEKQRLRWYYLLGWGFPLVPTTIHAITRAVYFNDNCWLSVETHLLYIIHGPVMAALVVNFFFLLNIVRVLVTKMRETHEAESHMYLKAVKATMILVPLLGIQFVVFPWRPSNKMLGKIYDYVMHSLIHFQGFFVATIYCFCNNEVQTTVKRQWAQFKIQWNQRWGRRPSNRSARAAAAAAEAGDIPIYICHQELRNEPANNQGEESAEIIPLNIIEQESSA
row,EC50 [pM],SMILES
1,100,"CC[C@H](C)[C@H](NC(=O)[C@@H]1CCCN1C(=O)CNC(=O)[C@H](Cc1ccccc1)NC(=O)[C@H](CC(N)=O)NC(=O)[C@H](CC(N)=O)NC(=O)[C@H](CO)NC(=O)[C@H](CO)NC(=O)[C@H](Cc1c[nH]cn1)NC(=O)[C@H](Cc1c[nH]cn1)NC(=O)[C@H](CC(C)C)NC(=O)[C@H](Cc1ccccc1)NC(=O)[C@H](CC(N)=O)NC(=O)[C@H](C)NC(=O)[C@H](CC(C)C)NC(=O)[C@H](CCCNC(=N)N)NC(=O)[C@H](CCC(N)=O)NC(=O)[C@@H](NC(=O)[C@H](C)NC(=O)[C@@H]1CSSC[C@H](NC(=O)[C@H](CCCCN)NC(=O)[C@H](Cc2c[nH]cn2)NC(=O)CC[C@H](NC(=O)CCCCCCCCCCCCCCCCCCC(=O)O)C(=O)O)C(=O)N[C@@H](CC(N)=O)C(=O)N[C@@H]([C@@H](C)O)C(=O)N[C@@H](C)C(=O)N[C@@H]([C@@H](C)O)C(=O)N1)[C@@H](C)O)C(=O)N[C@@H](CC(C)C)C(=O)N1CCC[C@H]1C(=O)N1CCC[C@H]1C(=O)N[C@H](C(=O)N[C@@H](CC(N)=O)C(=O)N[C@H](C(=O)NCC(=O)N[C@@H](CO)C(=O)N[C@@H](CC(N)=O)C(=O)N[C@H](C(=O)N[C@@H](Cc1ccc(O)cc1)C(N)=O)[C@@H](C)O)C(C)C)[C@@H](C)O [Example 28, N-alpha-[(S)-4-Carboxy-4-(19-carboxynonadecanoylamino)butyryl]-His-[His17]-pramlintide] ({C20 diacid-γGlu}-HKCNTATCATQRLANFLHHSSNNFGPILPPTNVGSNTY-NH2; disulfide 3-8)"
2,80,"CC[C@H](C)[C@H](NC(=O)[C@@H]1CCCN1C(=O)CNC(=O)[C@H](Cc1ccccc1)NC(=O)[C@H](CC(N)=O)NC(=O)[C@H](CC(N)=O)NC(=O)[C@H](CO)NC(=O)[C@H](CO)NC(=O)[C@H](Cc1c[nH]cn1)NC(=O)[C@H](Cc1c[nH]cn1)NC(=O)[C@H](CC(C)C)NC(=O)[C@H](Cc1ccccc1)NC(=O)[C@H](CC(N)=O)NC(=O)[C@H](C)NC(=O)[C@H](CC(C)C)NC(=O)[C@H](CCCNC(=N)N)NC(=O)[C@H](CCC(N)=O)NC(=O)[C@@H](NC(=O)[C@H](C)NC(=O)[C@@H]1CSSC[C@H](NC(=O)[C@H](CCCNC(=N)N)NC(=O)CCOCCOCCOCCOCCOCCOCCOCCOCCNC(=O)CC[C@H](NC(=O)CCCCCCCCCCCCCCCCC(=O)O)C(=O)O)C(=O)N[C@@H](CC(N)=O)C(=O)N[C@@H]([C@@H](C)O)C(=O)N[C@@H](C)C(=O)N[C@@H]([C@@H](C)O)C(=O)N1)[C@@H](C)O)C(=O)N[C@@H](CC(C)C)C(=O)N1CCC[C@H]1C(=O)N1CCC[C@H]1C(=O)N[C@H](C(=O)N[C@@H](CC(N)=O)C(=O)N[C@H](C(=O)NCC(=O)N[C@@H](CO)C(=O)N[C@@H](CC(N)=O)C(=O)N[C@H](C(=O)N[C@@H](Cc1ccc(O)cc1)C(N)=O)[C@@H](C)O)C(C)C)[C@@H](C)O [Example 52, N-alpha-[3-(2-{2-[2-(2-{2-[2-(2-{2-[(S)-4-Carboxy-4-(17-carboxyheptadecanoylamino)butyrylamino]ethoxy}ethoxy)ethoxy]ethoxy}ethoxy)ethoxy]ethoxy}ethoxy)propionylamino][Arg1,His17]-pramlintide] ({C18 diacid-γGlu-PEG8}-RCNTATCATQRLANFLHHSSNNFGPILPPTNVGSNTY-NH2; disulfide 2-7)"
3,40,"CC[C@H](C)[C@H](NC(=O)[C@@H]1CCCN1C(=O)CNC(=O)[C@H](Cc1ccccc1)NC(=O)[C@H](CC(N)=O)NC(=O)[C@H](CC(N)=O)NC(=O)[C@H](CO)NC(=O)[C@H](CO)NC(=O)[C@H](Cc1c[nH]cn1)NC(=O)[C@H](Cc1c[nH]cn1)NC(=O)[C@H](CC(C)C)NC(=O)[C@H](Cc1ccccc1)NC(=O)[C@H](CC(N)=O)NC(=O)[C@H](C)NC(=O)[C@H](CC(C)C)NC(=O)[C@H](CCCNC(=N)N)NC(=O)[C@H](CCC(N)=O)NC(=O)[C@@H](NC(=O)[C@H](C)NC(=O)[C@@H]1CSSC[C@H](NC(=O)[C@H](Cc2c[nH]cn2)NC(=O)[C@H](Cc2c[nH]cn2)NC(=O)[C@H](Cc2c[nH]cn2)NC(=O)CC[C@H](NC(=O)CCCCC(=O)O)C(=O)O)C(=O)N[C@@H](CC(N)=O)C(=O)N[C@@H]([C@@H](C)O)C(=O)N[C@@H](C)C(=O)N[C@@H]([C@@H](C)O)C(=O)N1)[C@@H](C)O)C(=O)N[C@@H](CC(C)C)C(=O)N1CCC[C@H]1C(=O)N1CCC[C@H]1C(=O)N[C@H](C(=O)N[C@@H](CC(N)=O)C(=O)N[C@H](C(=O)NCC(=O)N[C@@H](CO)C(=O)N[C@@H](CC(N)=O)C(=O)N[C@H](C(=O)N[C@@H](Cc1ccc(O)cc1)C(N)=O)[C@@H](C)O)C(C)C)[C@@H](C)O [Example 61, N-alpha-[(S)-4-Carboxy-4-(5-carboxypentanoylamino)butyryl]-His-His-[His1,His17]-pramlintide] ({Adipoyl-γGlu}-HHHCNTATCATQRLANFLHHSSNNFGPILPPTNVGSNTY-NH2; disulfide 4-9)"
4,100,"CC[C@H](C)[C@H](NC(=O)[C@@H]1CCCN1C(=O)CNC(=O)[C@H](Cc1ccccc1)NC(=O)[C@H](CC(N)=O)NC(=O)[C@H](CC(N)=O)NC(=O)[C@H](CO)NC(=O)[C@H](CO)NC(=O)[C@H](Cc1c[nH]cn1)NC(=O)[C@H](Cc1c[nH]cn1)NC(=O)[C@H](CC(C)C)NC(=O)[C@H](Cc1ccccc1)NC(=O)[C@H](CC(N)=O)NC(=O)[C@H](C)NC(=O)[C@H](CC(C)C)NC(=O)[C@H](CCCNC(=N)N)NC(=O)[C@H](CCC(N)=O)NC(=O)[C@@H](NC(=O)[C@H](C)NC(=O)[C@@H]1CSSC[C@H](NC(=O)[C@H](CCCNC(=N)N)NC(=O)[C@H](Cc2c[nH]cn2)NC(=O)[C@H](CCCNC(=N)N)NC(=O)CC[C@H](NC(=O)CCCCCCCCCCCCCCCCCCC(=O)O)C(=O)O)C(=O)N[C@@H](CC(N)=O)C(=O)N[C@@H]([C@@H](C)O)C(=O)N[C@@H](C)C(=O)N[C@@H]([C@@H](C)O)C(=O)N1)[C@@H](C)O)C(=O)N[C@@H](CC(C)C)C(=O)N1CCC[C@H]1C(=O)N1CCC[C@H]1C(=O)N[C@H](C(=O)N[C@@H](CC(N)=O)C(=O)N[C@H](C(=O)NCC(=O)N[C@@H](CO)C(=O)N[C@@H](CC(N)=O)C(=O)N[C@H](C(=O)N[C@@H](Cc1ccc(O)cc1)C(N)=O)[C@@H](C)O)C(C)C)[C@@H](C)O [Example 70, N-alpha-[(S)-4-Carboxy-4-(19-carboxynonadecanoylamino)butyryl]-Arg-His[Arg1,His17]-pramlintide] ({C20 diacid-γGlu}-RHRCNTATCATQRLANFLHHSSNNFGPILPPTNVGSNTY-NH2; disulfide 4-9)"
5,300,"CC[C@H](C)[C@H](NC(=O)[C@@H]1CCCN1C(=O)CNC(=O)[C@H](Cc1ccccc1)NC(=O)[C@H](CC(N)=O)NC(=O)[C@H](CC(N)=O)NC(=O)[C@H](CO)NC(=O)[C@H](CO)NC(=O)[C@H](Cc1c[nH]cn1)NC(=O)[C@H](CCCNC(=N)N)NC(=O)[C@H](CC(C)C)NC(=O)[C@H](Cc1ccccc1)NC(=O)[C@H](CC(N)=O)NC(=O)[C@H](C)NC(=O)[C@H](CC(C)C)NC(=O)[C@H](CCCNC(=N)N)NC(=O)[C@H](CCC(N)=O)NC(=O)[C@@H](NC(=O)[C@H](C)NC(=O)[C@@H]1CSSC[C@H](NC(=O)[C@H](CCC(=O)O)NC(=O)[C@H](CCC(=O)O)NC(=O)CC[C@H](NC(=O)CCCCCCCCCCCCCCCCCCC(=O)O)C(=O)O)C(=O)N[C@@H](CC(N)=O)C(=O)N[C@@H]([C@@H](C)O)C(=O)N[C@@H](C)C(=O)N[C@@H]([C@@H](C)O)C(=O)N1)[C@@H](C)O)C(=O)N[C@@H](CC(C)C)C(=O)N1CCC[C@H]1C(=O)N1CCC[C@H]1C(=O)N[C@H](C(=O)N[C@@H](CC(N)=O)C(=O)N[C@H](C(=O)NCC(=O)N[C@@H](CO)C(=O)N[C@@H](CC(N)=O)C(=O)N[C@H](C(=O)N[C@@H](Cc1ccc(O)cc1)C(N)=O)[C@@H](C)O)C(C)C)[C@@H](C)O [Example 49, N-alpha-[(S)-4-Carboxy-4-(19-carboxynonadecanoylamino)butyryl]-Glu-[Glu1,Arg17]-pramlintide] ({C20 diacid-γGlu}-EECNTATCATQRLANFLRHSSNNFGPILPPTNVGSNTY-NH2; disulfide 3-8)"
6,200,"CC[C@H](C)[C@H](NC(=O)[C@@H]1CCCN1C(=O)CNC(=O)[C@H](Cc1ccccc1)NC(=O)[C@H](CC(N)=O)NC(=O)[C@H](CC(N)=O)NC(=O)[C@H](CO)NC(=O)[C@H](CO)NC(=O)[C@H](Cc1c[nH]cn1)NC(=O)[C@H](Cc1c[nH]cn1)NC(=O)[C@H](CC(C)C)NC(=O)[C@H](Cc1ccccc1)NC(=O)[C@H](CC(N)=O)NC(=O)[C@H](C)NC(=O)[C@H](CC(C)C)NC(=O)[C@H](CCCNC(=N)N)NC(=O)[C@H](CCC(N)=O)NC(=O)[C@@H](NC(=O)[C@H](C)NC(=O)[C@@H]1CSSC[C@H](NC(=O)[C@H](CCCCN)NC(=O)CC[C@H](NC(=O)CCCCCCCCCCCCCCCCCCC(=O)O)C(=O)O)C(=O)N[C@@H](CC(N)=O)C(=O)N[C@@H]([C@@H](C)O)C(=O)N[C@@H](C)C(=O)N[C@@H]([C@@H](C)O)C(=O)N1)[C@@H](C)O)C(=O)N[C@@H](CC(C)C)C(=O)N1CCC[C@H]1C(=O)N1CCC[C@H]1C(=O)N[C@H](C(=O)N[C@@H](CC(N)=O)C(=O)N[C@H](C(=O)NCC(=O)N[C@@H](CO)C(=O)N[C@@H](CC(N)=O)C(=O)N[C@H](C(=O)N[C@@H](Cc1ccc(O)cc1)C(N)=O)[C@@H](C)O)C(C)C)[C@@H](C)O [Example 7, N-alpha-[(S)-4-Carboxy-4-(19-carboxynonadecanoylamino)butyryl]-[His17]-pramlintide] ({C20 diacid-γGlu}-KCNTATCATQRLANFLHHSSNNFGPILPPTNVGSNTY-NH2; disulfide 2-7)"
